The source of these data is US6025387A, “Gastroprotective flavone/flavanone compounds with therapeutic effect on inflammatory bowel disease” (Dong a Pharmaceutical Co., Ltd., priority 1996, dated 2000).

Test [1] concerns cyclooxygenase. As to the kind of experiment: Cyclooxygenase activity in HUVEC (PGE2 synthesis). The format is cell-based. The procedure: (§1) Measurment of Cyclooxygenase Actvity
(§2) After addition of the compound to cultured HUVEC, the HUVEC was incubated at 37° C., for 30 minutes, then arachidonic acid (final concentration: 30 .rho.M) was added, and the HUVEC was additionally incubated at 37° C. for 15 minutes. The culture medium was taken, and the activity of cyclooxygenase for 6-Keto-PGF1 α or PGE2 was measured by radioimmunoassay (Mitchell, J. A., et al., Pro. Natl. Acad. Sci. USA 1994, 90: 11693-11697).
**SC200 (μg/mL) : Concentration at increasing generation of […]

Test [2] deals with gastric mucosal damage induced by ethanolic HCl. As to the kind of experiment: Gastritis model induced with ethanolic-HCl. The format is in vivo, SD male rat. As to conditions: po, 1 h, rat; for inhibition in vivo at 0.3 mg/kg: 0.3 mg/kg p.o.; for inhibition in vivo at 1 mg/kg: 1 mg/kg p.o.; for inhibition in vivo at 3 mg/kg: 3 mg/kg p.o. The procedure:
Effect on the Gastritis Model Induced with Ethanolic-HCl.
SD male rat(250-350 g) was fasted for 24 hours. The compound was orally administered in suspension of 5% HPMC, and after 1 hour 1.5 mL of 150 mM HCl-80% ethanol was orally administered. After 1 hour the rat was sacrifieced and the stomach was extracted and the ulcer index was measured. The ulcer index was shown by the area of hemorrhage lesion(Mizui, T, et al., Jpn. J. Pharmacol. 1983, 33: 939).

Test [3] relates to cyclooxygenase. As to the kind of experiment: Cyclooxygenase activity in HUVEC (PGF1 α synthesis). Type of test: cell-based. The procedure:
as §1, §2
**SC200 (ug/mL) : Concentration at increasing generation of […]

Test [4] deals with TNBS-induced colitis. The experiment in a line: TNBS-induced colitis model, intracolonic (rectal) administration. The format is in vivo, male SD rats. As to conditions: once a day for 13 days, rat. The procedure:
(§3) Experiment on the Model of Inflammatory Bowl Diseases Induced with TNBS
(§4) The modified method of Shibata et al. (Dig. Endosc. 1993, 5: 13) was used. 7 week-aged male SD rats were fasted for a day, and the rats were put under anesthesia and canula (diameter 3 mm) was inserted into the anus to the depth of 8 cm. 25 mg/mL of TNBS (Trinitrobenzene sulfonic acid) dissolved in 50% ethanol solution was injected to each rat and the rats were positioned at feature of tail up for 1 minute. The solution flowing out was removed and the rats were once washed with 1.5 mL of saline solution. After colitis was induced, the compound was administered orally or intracolonically once a day for 13 days. For control, mesalazine (5-amino salicylic acid) was used for oral administration and prednisolone was used for rectal administration. At 14th day of experiment, each group of the rats were put under ether anesthesis, the colon was extracted and the degree of adhesion and extension of the large intestine were measured and their lesion scores were recorded. After 1% formalin solution was injected to the cavity of the extracted colon to inflate, the both ends of it were bonded with each other and it was all-fixed in 1% formalin solution for 2 hours. The all-fixed colon was cut to lengthy direction and washed to remove surrounding fat tissues and connective fissaes. After cecum was removed, the weight of the colon and the rectum was measured, and the area of ulcer lesion, and microscopic lesion were measured to mark scores according to the criterion. And they were fixed in 10% neutral formalin solution, and the tissue examination of lesion site was performed by general method to mark scores according to the criterion.
Macroscopic evaluation: We measured the number and the width of the ulcer and lesion area formed in the large intestine, by using modified Wallace's method (Can. J. Physiol. Pharmacol., 1988, 66: 422). We scored the lesion examined with the naked eye and compared the average value of each group. The standards of lesion scores as criterion of the damage of the colon by Wallace's method is as followings.
(§5) (0: normal, non-damaged, 1: congestion without ulcer 2: congestion and thickening of intestinal wall without ulcer, 3: an ulcer lesion without thickening of intestinal wall, 4: more than two ulcerous/inflammatory lesion, 5: more than two ulcerous/inflammatory lesion or the length of ulcerous/inflammatory lesion is more than 1 cm, 6-10: when the length of lesion is over 2 cm, one point increases everytime 1 cm of the length of ulcerous/inflammatory increases, for example, when the ulcer length is 3 cm, the point is 7.)

Test [5] relates to chronic gastritis induced with acetic acid. The experiment in a line: Model of chronic gastritis induced with acetic acid. The format is in vivo, SD male rat. Conditions: once a day for 21 days, rat. The procedure:
Experiment on the Model of Chronic Gastritis Induced with Acetic Acid
From the next day of the surgical operation, the compound was orally administered once a day for 21 days. After 21 days, the stomach was extracted under ether anesthesis, dipped in 1% formalin solution and the area of gastric lesion was measured. […] An pathological tissue autopsy was carried out for the prepared specimen.

The subject of test [6] is TNBS-induced colitis. The experiment in a line: TNBS-induced colitis model, oral administration. Type of test: in vivo, male SD rats. Conditions: for lesion scores: once a day for 13 days, rat; for adhesion degree / dilation and extention degree: score 0-3, rat. Here is the method: as §3
as §4, with “7” for “The modified method of Shibata et al. (Dig. Endosc. 1993, 5: 13) was used. 7”
Clinical symptoms: Daily, we observed clinical symptoms and survival of the animals. And we measured the weight of the animals at the beginning day, third and eighth day of the experiment.
(0: non-adhesion, 1: adhesion exists but easily taken off by gloved hand, 2: more severe adhesion than 1 exists but easily taken off by scissors, 3: very severe adhesion exists, so it is difficult to be taken off by scissors because of possibility of its perforation.)
Degree of thickening and extension of the large intestine: We marked scores of the degree of thickness and extension of the large intestine according to the criterion, following the method of Kim et al., and compared with the average value of each group.
(0: lesion site non-existing, 1: a few degree of lesion, 2: intermediate degree of lesion, 3: severe degree of lesion)
We scored the lesion examined with the naked eye and compared the average value of each group. The standards of lesion scores as criterion of the damage of the colon by Wallace's method is as followings.
as §5
Microscopic evaluation: We trimmed the colon giving 3 cm interval from the rectum to the cecum, including the site of lesion examined with the naked eye, to make at least 4 specimens per an individual. […] When the lesion can not be examined with the naked eye, we trimmed the other specimen which has the lesion, with 3 cm interval.

The target of another test is T1, 5-lipoxygenase (Rattus norvegicus, UniProt P12527).
T1 construct: endogenous in cells; host or cells: casein-elicited rat peritoneal neutrophils
T1 sequence (P12527 1-673): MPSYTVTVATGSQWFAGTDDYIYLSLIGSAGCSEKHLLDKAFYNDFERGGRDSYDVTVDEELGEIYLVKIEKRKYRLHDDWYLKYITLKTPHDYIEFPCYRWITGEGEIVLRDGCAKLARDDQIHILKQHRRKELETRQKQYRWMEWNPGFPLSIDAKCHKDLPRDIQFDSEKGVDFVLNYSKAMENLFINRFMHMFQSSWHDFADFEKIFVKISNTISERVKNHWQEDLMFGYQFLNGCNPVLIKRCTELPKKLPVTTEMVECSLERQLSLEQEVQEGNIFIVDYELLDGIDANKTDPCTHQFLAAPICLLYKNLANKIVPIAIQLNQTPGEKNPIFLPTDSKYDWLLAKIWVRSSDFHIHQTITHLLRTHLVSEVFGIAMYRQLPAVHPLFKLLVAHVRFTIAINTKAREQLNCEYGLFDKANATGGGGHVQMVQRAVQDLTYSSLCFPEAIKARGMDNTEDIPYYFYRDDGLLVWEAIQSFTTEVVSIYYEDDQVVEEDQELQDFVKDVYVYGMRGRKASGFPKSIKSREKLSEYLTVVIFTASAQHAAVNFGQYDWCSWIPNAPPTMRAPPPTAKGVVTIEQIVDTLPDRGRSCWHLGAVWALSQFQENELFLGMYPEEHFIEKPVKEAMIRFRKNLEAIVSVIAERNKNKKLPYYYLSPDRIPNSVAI
As to the kind of experiment: 5-lipoxygenase activity (LTB4 in A23187-stimulated peritoneal neutrophils). Type of test: cell-based. Here is the method:
Measurement of 5-lipooxygenase Activity
Modified Safayhi et al.'s method (Safayhi, H., et al., Biochem. Pharmacol. 1985, 34: 2691) was used to this experiment. Peritoneal neutrophil was separated from the rat which was treated with casein solution. The compound was added to 10^7 cells (5×10^6 cells/mL, 2 mL) of neutrophil after 2 minutes Ca^2+ -ionophore, A23187 (1 μg/mL) was added and the mixture was incubared at 37° C. for 10 minutes. The reaction mixture was centrifuged and the supermatant was taken up. The amount of LTB4 in the supermatant was measured by radioimmunoassay.

For another test, the system named is gastric mucus secretion. The experiment in a line: Measurement of gastric mucus. Type of test: in vivo, SD male rat. As to conditions: oral, rat. Here is the method:
Measurement of Gastric Mucus
The compound was orally administered into SD male rat (200~250 g). After 1 hour the stomach was extracted. The extracted stomach was immediately washed with 10 mL of cold 0.25M sucrose solution. The gastric mucosa was dyed with 0.1% alcian blue solution for 2 hours. After dyeing, the gastric mucosa was washed with 0.25M sucrose solution twice for 15 minutes and for 45 minutes. The dyed gastric mucosa was treated with 10 mL of 30% dioctyl sodium sulfosuccinate solution for 2 hours to extract dyed mucus completely and optical density of aqueous phase was measured spectrophotometrically at 655 nm. The amount of mucus in the gastric mucosa was shown as the amount of alcian blue after calibration (Kitagawa, H., et al., Drug Res. 1986, 36: 1240-1244).

For the compound `COc1ccc(C2CC(=O)c3c(cc(O)c(OC)c3O)O2)cc1OC` (stereo not drawn) [5,7-dihydroxy-3',4',6-trimethoxy flavanone], in the test with cyclooxygenase [1], the “SC200, concentration increasing generation of PGE2 to 200%” value was 3.9 µg/mL. Further, in test [2], the inhibition in vivo at 0.3 mg/kg was found to be 5%, the inhibition in vivo at 1 mg/kg is 49% and the inhibition in vivo at 3 mg/kg is 56%. In addition, the “SC200, concentration increasing generation of PGF1α to 200%” value in the test on cyclooxygenase [3] amounted to 34.6 µg/mL.
Take `COc1ccc(-c2cc(=O)c3c(OC)c(OC)c(OCC(=O)[O-])cc3o2)cc1OC.[Na+]` [7-carboxymethyloxy-3',4',5,6-tetramethoxy flavone sodium salt]: the lesion scores turned out to be 2.56 in the test with TNBS-induced colitis [4] (0.3 mg/kg rectally), 2.60 with TNBS-induced colitis [4] (3 mg/kg rectally), 1.3 with TNBS-induced colitis [6] (1 mg/kg p.o.) and 0.8 in the test on TNBS-induced colitis [6] (10 mg/kg p.o.). Also, the “inhibiting% (gastric lesion)” value worked out at 10% in test [5] (0.3 mg/kg p.o.), 29% in test [5] (3 mg/kg p.o.) and 42% in test [5] (10 mg/kg p.o.). For the same compound, the adhesion degree in the test with TNBS-induced colitis [6] (1 mg/kg p.o.) stood at 0.5; in the test on TNBS-induced colitis [6] (10 mg/kg p.o.), 0.6. In addition, the “dilation and extention degree” value in the test with TNBS-induced colitis [6] (1 mg/kg p.o.) was determined as 0.3; in the test with TNBS-induced colitis [6] (10 mg/kg p.o.), 0.4.
In the case of `COc1ccc(-c2cc(=O)c3c(OC)cc(OCC(=O)[O-])cc3o2)cc1OC.[Na+]` [7-carboxymethyloxy-3',4',5-trimethoxy flavone sodium salt], the lesion scores in the test with TNBS-induced colitis [4] (0.3 mg/kg rectally) was found to be 4.43; in the test on TNBS-induced colitis [4] (3 mg/kg rectally), 0.86. Further, the “inhibiting% (gastric lesion)” value came out at 4% in test [5] (0.3 mg/kg p.o.), 83% in test [5] (3 mg/kg p.o.) and 80% in test [5] (10 mg/kg p.o.).
Take `COc1ccc(-c2cc(=O)c3c(OC)cc(OCC(=O)O)cc3o2)cc1OC` [7-carboxymethyloxy-3',4',5-trimethoxy flavone]: the concentration for half-maximal inhibition (IC50) at 5-lipoxygenase was 35.5 µM. The “gastric mucus secretion, % Control” value in the test with gastric mucus secretion (0.3 mg/kg) is recorded as 126.5 % Control. In addition, the “gastric mucus secretion, % Control” value in the test with gastric mucus secretion (3 mg/kg) is 122.8 % Control. The “gastric mucus secretion, % Control” value in the test with gastric mucus secretion (30 mg/kg) is given as 117.9 % Control. In test [2], this compound displayed an inhibition in vivo at 0.3 mg/kg of 58%, an inhibition in vivo at 1 mg/kg of 68% and an inhibition in vivo at 3 mg/kg of 85%. Moreover, the “SC200, concentration increasing generation of PGF1α to 200%” value in the test with cyclooxygenase [3] was determined as 14.35 µg/mL.
At 5-lipoxygenase, `CCCCCOc1cc2c(=O)cc(-c3ccc(OC)c(OC)c3)oc2cc1OCC(=O)O` [7-carboxymethyloxy-3',4'-dimethoxy-6-n-pentyloxy flavone] showed an IC50 of 2.8 µM.
As for `CCCCOc1c(OCC(=O)O)cc2oc(-c3ccc(OC)c(OC)c3)cc(=O)c2c1O` [7-carboxymethyloxy-5-hydroxy-6-n-butyloxy-3',4'-dimethoxy flavone], at 5-lipoxygenase, the concentration for half-maximal inhibition (IC50) was 26.3 µM. Also, at 0.1 mg/kg the inhibition in vivo in test [2] (0.1 mg/kg p.o.) was 43%. The compound also registered an inhibition in vivo at 1 mg/kg in test [2] of 61%. In addition, the inhibition in vivo at 10 mg/kg in test [2] (10 mg/kg p.o.) is 63%. For the same compound, the “SC200, concentration increasing generation of PGF1α to 200%” value in the test with cyclooxygenase [3] is 2.41 µg/mL.
Compound `C[C@]12C=CC(=O)C=C1CC[C@@H]1[C@@H]2[C@@H](O)C[C@@]2(C)[C@H]1CC[C@]2(O)C(=O)CO` [prednisolone, reference compound] displayed a lesion scores in the test on TNBS-induced colitis [4] (1 mg/kg rectally) of 0.83.
